Patent US12383545B1, “Treatment of migraine” (priority 2018, dated 2025)

System: ALT or AST
Assay: Example 5: postbaseline hepatic laboratory parameter values of clinical interest
Format: in vivo, human
Conditions: safety population; for Participants with Concurrent Elevations ALT or AST >=3 * ULN AND Bilirubin Total >=1.5 * ULN, n/N1 / Participants with Concurrent Elevations ALT or AST >=3 * ULN AND Bilirubin Total >=2 * ULN, n/N1 / Participants with Potential Hy's Law ALT or AST >=3 * ULN AND Bilirubin Total >=2 * ULN AND ALP <2 * ULN, n/N1: same day
Protocol: In a multicenter, randomized, double-blind, placebo-controlled, parallel-group study designed to evaluate the efficacy, safety, and tolerability of multiple doses and doses regimens of atogepant for the prevention of migraine. The patients were randomized (2:1:2:1:2:1) to 1 of 6 treatment groups: placebo, atogepant 10 mg QD, atogepant 30 mg QD, atogepant 30 mg BID, atogepant 60 mg QD, and atogepant 60 mg BID.
A total of 834 patients were randomized to double-blind treatment (ITT population), and 825 patients took at least 1 dose of double-blind IP (safety population). […] The primary efficacy variable was the change from baseline in mean monthly migraine/probable migraine headache days across the 12-week treatment period. The secondary efficacy variables were the change from baseline in mean monthly headache days across the 12-week treatment period, proportion of patients with at least a 50% reduction in mean monthly migraine/probable migraine headache days across the 12-week treatment period, and the change from baseline in mean monthly acute medication use days across the 12-week treatment period.

C[C@@H]1[C@H](c2c(F)ccc(F)c2F)C[C@H](NC(=O)c2cnc3c(c2)C[C@@]2(C3)C(=O)Nc3ncccc32)C(=O)N1CC(F)(F)F [atogepant]
Participants with postbaseline ALT or AST (U/L) >=1 * ULN, (%) (Atogepant 10 mg QD (N = 93)): (18.5) % | Participants with postbaseline ALT or AST (U/L) >=1 * ULN, n/N1 (Atogepant 10 mg QD (N = 93)): 17/92 | Participants with postbaseline ALT or AST (U/L) >=1.5 * ULN, (%) (Atogepant 10 mg QD (N = 93)): (4.3) % | Participants with postbaseline ALT or AST (U/L) >=1.5 * ULN, n/N1 (Atogepant 10 mg QD (N = 93)): 4/92 | Participants with postbaseline ALT or AST (U/L) >=2 * ULN, (%) (Atogepant 10 mg QD (N = 93)): (4.3) % | Participants with postbaseline ALT or AST (U/L) >=2 * ULN, n/N1 (Atogepant 10 mg QD (N = 93)): 4/92 | Participants with postbaseline ALT or AST (U/L) >=3 * ULN, (%) (Atogepant 10 mg QD (N = 93)): (2.2) % | Participants with postbaseline ALT or AST (U/L) >=3 * ULN, n/N1 (Atogepant 10 mg QD (N = 93)): 2/92 | Participants with postbaseline ALT or AST (U/L) >=5 * ULN, n/N1 (Atogepant 10 mg QD (N = 93)): 0 | Participants with postbaseline ALT or AST (U/L) >=10 * ULN, n/N1 (Atogepant 10 mg QD (N = 93)): 0 | Participants with postbaseline ALT or AST (U/L) >=20 * ULN, n/N1 (Atogepant 10 mg QD (N = 93)): 0 | Participants with Concurrent Elevations ALT or AST >=3 * ULN AND Bilirubin Total >=1.5 * ULN, n/N1 (Atogepant 10 mg QD (N = 93)): 0 | Participants with Concurrent Elevations ALT or AST >=3 * ULN AND Bilirubin Total >=2 * ULN, n/N1 (Atogepant 10 mg QD (N = 93)): 0 | Participants with Potential Hy's Law ALT or AST >=3 * ULN AND Bilirubin Total >=2 * ULN AND ALP <2 * ULN, n/N1 (Atogepant 10 mg QD (N = 93)): 0 | Participants with postbaseline ALT or AST (U/L) >=1 * ULN, (%) (Atogepant 30 mg BID (N = 86)): (13.1) % | Participants with postbaseline ALT or AST (U/L) >=1 * ULN, n/N1 (Atogepant 30 mg BID (N = 86)): 11/84 | Participants with postbaseline ALT or AST (U/L) >=1.5 * ULN, (%) (Atogepant 30 mg BID (N = 86)): (2.4) % | Participants with postbaseline ALT or AST (U/L) >=1.5 * ULN, n/N1 (Atogepant 30 mg BID (N = 86)): 2/84 | Participants with postbaseline ALT or AST (U/L) >=2 * ULN, (%) (Atogepant 30 mg BID (N = 86)): (2.4) % | Participants with postbaseline ALT or AST (U/L) >=2 * ULN, n/N1 (Atogepant 30 mg BID (N = 86)): 2/84 | Participants with postbaseline ALT or AST (U/L) >=3 * ULN, (%) (Atogepant 30 mg BID (N = 86)): (1.2) % | Participants with postbaseline ALT or AST (U/L) >=3 * ULN, n/N1 (Atogepant 30 mg BID (N = 86)): 1/84 | Participants with postbaseline ALT or AST (U/L) >=5 * ULN, n/N1 (Atogepant 30 mg BID (N = 86)): 0 | Participants with postbaseline ALT or AST (U/L) >=10 * ULN, n/N1 (Atogepant 30 mg BID (N = 86)): 0 | Participants with postbaseline ALT or AST (U/L) >=20 * ULN, n/N1 (Atogepant 30 mg BID (N = 86)): 0 | Participants with Concurrent Elevations ALT or AST >=3 * ULN AND Bilirubin Total >=1.5 * ULN, n/N1 (Atogepant 30 mg BID (N = 86)): 0 | Participants with Concurrent Elevations ALT or AST >=3 * ULN AND Bilirubin Total >=2 * ULN, n/N1 (Atogepant 30 mg BID (N = 86)): 0 | Participants with Potential Hy's Law ALT or AST >=3 * ULN AND Bilirubin Total >=2 * ULN AND ALP <2 * ULN, n/N1 (Atogepant 30 mg BID (N = 86)): 0 | Participants with postbaseline ALT or AST (U/L) >=1 * ULN, (%) (Atogepant 30 mg QD (N = 183)): (17.8) % | Participants with postbaseline ALT or AST (U/L) >=1 * ULN, n/N1 (Atogepant 30 mg QD (N = 183)): 32/180 | Participants with postbaseline ALT or AST (U/L) >=1.5 * ULN, (%) (Atogepant 30 mg QD (N = 183)): (7.2) % | Participants with postbaseline ALT or AST (U/L) >=1.5 * ULN, n/N1 (Atogepant 30 mg QD (N = 183)): 13/180 | Participants with postbaseline ALT or AST (U/L) >=2 * ULN, (%) (Atogepant 30 mg QD (N = 183)): (3.3) % | Participants with postbaseline ALT or AST (U/L) >=2 * ULN, n/N1 (Atogepant 30 mg QD (N = 183)): 6/180 | Participants with postbaseline ALT or AST (U/L) >=3 * ULN, (%) (Atogepant 30 mg QD (N = 183)): (0.6) % | Participants with postbaseline ALT or AST (U/L) >=3 * ULN, n/N1 (Atogepant 30 mg QD (N = 183)): 1/180 | Participants with postbaseline ALT or AST (U/L) >=5 * ULN, n/N1 (Atogepant 30 mg QD (N = 183)): 0 | Participants with postbaseline ALT or AST (U/L) >=10 * ULN, n/N1 (Atogepant 30 mg QD (N = 183)): 0 | Participants with postbaseline ALT or AST (U/L) >=20 * ULN, n/N1 (Atogepant 30 mg QD (N = 183)): 0 | Participants with Concurrent Elevations ALT or AST >=3 * ULN AND Bilirubin Total >=1.5 * ULN, n/N1 (Atogepant 30 mg QD (N = 183)): 0 | Participants with Concurrent Elevations ALT or AST >=3 * ULN AND Bilirubin Total >=2 * ULN, n/N1 (Atogepant 30 mg QD (N = 183)): 0 | Participants with Potential Hy's Law ALT or AST >=3 * ULN AND Bilirubin Total >=2 * ULN AND ALP <2 * ULN, n/N1 (Atogepant 30 mg QD (N = 183)): 0 | Participants with postbaseline ALT or AST (U/L) >=1 * ULN, (%) (Atogepant 60 mg BID (N = 91)): (10.2) % | Participants with postbaseline ALT or AST (U/L) >=1 * ULN, n/N1 (Atogepant 60 mg BID (N = 91)): 9/88 | Participants with postbaseline ALT or AST (U/L) >=1.5 * ULN, (%) (Atogepant 60 mg BID (N = 91)): (1.1) % | Participants with postbaseline ALT or AST (U/L) >=1.5 * ULN, n/N1 (Atogepant 60 mg BID (N = 91)): 1/88 | Participants with postbaseline ALT or AST (U/L) >=2 * ULN, (%) (Atogepant 60 mg BID (N = 91)): (1.1) % | Participants with postbaseline ALT or AST (U/L) >=2 * ULN, n/N1 (Atogepant 60 mg BID (N = 91)): 1/88 | Participants with postbaseline ALT or AST (U/L) >=3 * ULN, (%) (Atogepant 60 mg BID (N = 91)): (1.1) % | Participants with postbaseline ALT or AST (U/L) >=3 * ULN, n/N1 (Atogepant 60 mg BID (N = 91)): 1/88 | Participants with postbaseline ALT or AST (U/L) >=5 * ULN, n/N1 (Atogepant 60 mg BID (N = 91)): 0 | Participants with postbaseline ALT or AST (U/L) >=10 * ULN, n/N1 (Atogepant 60 mg BID (N = 91)): 0 | Participants with postbaseline ALT or AST (U/L) >=20 * ULN, n/N1 (Atogepant 60 mg BID (N = 91)): 0 | Participants with Concurrent Elevations ALT or AST >=3 * ULN AND Bilirubin Total >=1.5 * ULN, n/N1 (Atogepant 60 mg BID (N = 91)): 0 | Participants with Concurrent Elevations ALT or AST >=3 * ULN AND Bilirubin Total >=2 * ULN, n/N1 (Atogepant 60 mg BID (N = 91)): 0 | Participants with Potential Hy's Law ALT or AST >=3 * ULN AND Bilirubin Total >=2 * ULN AND ALP <2 * ULN, n/N1 (Atogepant 60 mg BID (N = 91)): 0 | Participants with postbaseline ALT or AST (U/L) >=1 * ULN, (%) (Atogepant 60 mg QD (N = 186)): (13.8) % | Participants with postbaseline ALT or AST (U/L) >=1 * ULN, n/N1 (Atogepant 60 mg QD (N = 186)): 25/181 | Participants with postbaseline ALT or AST (U/L) >=1.5 * ULN, (%) (Atogepant 60 mg QD (N = 186)): (4.4) % | Participants with postbaseline ALT or AST (U/L) >=1.5 * ULN, n/N1 (Atogepant 60 mg QD (N = 186)): 8/181 | Participants with postbaseline ALT or AST (U/L) >=2 * ULN, (%) (Atogepant 60 mg QD (N = 186)): (2.8) % | Participants with postbaseline ALT or AST (U/L) >=2 * ULN, n/N1 (Atogepant 60 mg QD (N = 186)): 5/181 | Participants with postbaseline ALT or AST (U/L) >=3 * ULN, (%) (Atogepant 60 mg QD (N = 186)): (1.7) % | Participants with postbaseline ALT or AST (U/L) >=3 * ULN, n/N1 (Atogepant 60 mg QD (N = 186)): 3/181 | Participants with postbaseline ALT or AST (U/L) >=5 * ULN, (%) (Atogepant 60 mg QD (N = 186)): (0.6) % | Participants with postbaseline ALT or AST (U/L) >=5 * ULN, n/N1 (Atogepant 60 mg QD (N = 186)): 1/181 | Participants with postbaseline ALT or AST (U/L) >=10 * ULN, n/N1 (Atogepant 60 mg QD (N = 186)): 0 | Participants with postbaseline ALT or AST (U/L) >=20 * ULN, n/N1 (Atogepant 60 mg QD (N = 186)): 0 | Participants with Concurrent Elevations ALT or AST >=3 * ULN AND Bilirubin Total >=1.5 * ULN, n/N1 (Atogepant 60 mg QD (N = 186)): 0 | Participants with Concurrent Elevations ALT or AST >=3 * ULN AND Bilirubin Total >=2 * ULN, n/N1 (Atogepant 60 mg QD (N = 186)): 0 | Participants with Potential Hy's Law ALT or AST >=3 * ULN AND Bilirubin Total >=2 * ULN AND ALP <2 * ULN, n/N1 (Atogepant 60 mg QD (N = 186)): 0
